This is an account of results in patent publication US9573966B2, “Anti-cancer activity of novel bicyclic heterocycles” (Katholieke Universiteit Leuven, K.U.Leuven R&D, priority 2010, dated 2017).

One test concerns HL-60 cells. Kind of test: Inhibition of HL-60 leukemic cell line proliferation (WST-1). As to conditions: cytotoxicity on HL-60 cells, two days incubation, WST-1 read-out. It counts as cell-based, human. On the procedure:
(§1) HL-60 cell line, a human promyelocytic leukemia (ATCC; CCL-240) cell line, was grown in RPMI-1640 medium (Lonza, Belgium) supplemented with 10% fetal calf serum (Hyclone, US) and antibiotics. Exponential growing phase cells were seed in flat bottom 96-well microplates (TTP, Switzerland) at 50000 cells per well in 220 μl of medium with compounds (in different concentrations) and incubated for two days at 37° C., 5% CO2. After incubation, 100 μl of supernatant were removed and 10 μl of WST-1 (Roche, Switzerland) were added. After 2 hour incubation at 37° C., 5% CO2, optical densities were measured at 450 nm. Proliferation is calculated with respect of control points (no compound and treatment with Triton X100 to have maximum and minimum proliferation data). The IC50 was determined from a graph with at least four points, each derived from the mean of at least 2 experiments. […] The results are shown in Table 2 for a number of compounds.
Background: Formazan colour is commonly taken as a measure of viable cells.

A further test has as its system HSB-2 cells. The test is described as follows: Inhibition of HSB-2 leukemic cell line proliferation (WST-1). The following applies: cytotoxicity on HSB-2 cells, two days incubation, WST-1 read-out. It counts as cell-based, human. How it is done: as §1, with “HSB2 cell” for “HL-60 cell”, “human acute lymphoblastic” for “human promyelocytic”, “(ATCC; CCL-120.1)” for “(ATCC; CCL-240)”, “Table 1” for “Table 2”

By IC50 is commonly meant the concentration needed to halve the response being measured. Take `COc1ccc(OCC(=O)N2CCN(c3nc(N)nc4sc(-c5ccccc5)nc34)CC2)cc1` [Example 208, 1-(4-(5-amino-2-phenylthiazolo[5,4-d]pyrimidin-7-yl)piperazin-1-yl)-2-(4-methoxyphenoxy)ethanone]: the IC50 amounted to 0.07 µM in the test on HL-60 cells (Homo sapiens, 48 h) and 0.06 µM with HSB-2 cells (Homo sapiens, HSB2, 48 h).
For the compound `Nc1nc(N2CCN(C(=O)COc3ccc(F)cc3)CC2)c2nc(-c3ccco3)sc2n1` [Example 209, 1-(4-(5-amino-2-(furan-2-yl)thiazolo[5,4-d]pyrimidin-7-yl)piperazin-1-yl)-2-(4-fluorophenoxy)ethanone], the IC50 was found to be 0.57 µM in the test on HL-60 cells (Homo sapiens, 48 h) and 0.51 µM in the test with HSB-2 cells (Homo sapiens, HSB2, 48 h).
As to `Cc1cccc(OCC(=O)N2CCN(c3nc(N)nc4sc(-c5ccco5)nc34)CC2)c1` [Example 210, 1-(4-(5-amino-2-(furan-2-yl)thiazolo[5,4-d]pyrimidin-7-yl)piperazin-1-yl)-2-(m-tolyloxy)ethanone], the concentration for half-maximal inhibition (IC50) with HL-60 cells (Homo sapiens, 48 h) worked out at 0.39 µM; in the test with HSB-2 cells (Homo sapiens, HSB2, 48 h) it was 0.48 µM.
For the compound `Cc1cccc(OCC(=O)N2CCN(c3nc(N)nc4sc(-c5ccc(F)cc5)nc34)CC2)c1` [Example 211, 1-(4-(5-amino-2-(4-fluorophenyl)thiazolo[5,4-d]pyrimidin-7-yl)piperazin-1-yl)-2-(m-tolyloxy)ethanone], the IC50 with HL-60 cells (Homo sapiens, 48 h) came to 0.69 µM; in the test with HSB-2 cells (Homo sapiens, HSB2, 48 h), 0.47 µM.
The corresponding values for `Cc1cc(Cl)ccc1OCC(=O)N1CCN(c2nc(N)nc3sc(-c4ccc(F)cc4)nc23)CC1` [Example 213, 1-(4-(5-amino-2-(4-fluorophenyl)thiazolo[5,4-d]pyrimidin-7-yl)piperazin-1-yl)-2-(4-chloro-2-methylphenoxy)ethanone] are 6.72 µM and 5.25 µM.
The corresponding values for `Nc1nc(N2CCN(C(=O)COc3cccc(Cl)c3)CC2)c2nc(-c3ccc(F)cc3)sc2n1` [Example 214, 1-(4-(5-amino-2-(4-fluorophenyl)thiazolo[5,4-d]pyrimidin-7-yl)piperazin-1-yl)-2-(3-chlorophenoxy)ethanone] are 6.02 µM and 0.73 µM.
`N#Cc1ccc(NC(=O)N2CCN(c3nc(N)nc4sc(-c5ccc(F)cc5)nc34)CC2)cc1` [Example 216, 4-(5-amino-2-(4-fluorophenyl)thiazolo[5,4-d]pyrimidin-7-yl)-N-(4-cyanophenyl)piperazine-1-carboxamide]: the IC50 came out at 6.41 µM in the test with HL-60 cells (Homo sapiens, 48 h) and 4.9 µM in the test with HSB-2 cells (Homo sapiens, HSB2, 48 h).
The corresponding values for `Nc1nc(N2CCN(C(=O)Nc3ccc(Br)cc3)CC2)c2nc(-c3ccc(F)cc3)sc2n1` [Example 218, 4-(5-amino-2-(4-fluorophenyl)thiazolo[5,4-d]pyrimidin-7-yl)-N-(4-bromophenyl)piperazine-1-carboxamide] are 7.35 µM and 7.05 µM.
The corresponding values for `COc1ccccc1NC(=O)N1CCN(c2nc(N)nc3sc(-c4ccc(F)cc4)nc23)CC1` [Example 219, 4-(5-amino-2-(4-fluorophenyl)thiazolo[5,4-d]pyrimidin-7-yl)-N-(2-methoxyphenyl)piperazine-1-carboxamide] are 6.19 µM and 5.83 µM.
With `N#Cc1ccc(NC(=O)N2CCN(c3nc(N)nc4sc(Cc5ccc(F)cc5)nc34)CC2)cc1` [Example 232, 4-(5-amino-2-(4-fluorobenzyl)thiazolo[5,4-d]pyrimidin-7-yl)-N-(4-cyanophenyl)piperazine-1-carboxamide], the IC50 was 9.89 µM with HL-60 cells (Homo sapiens, 48 h) and 6.89 µM with HSB-2 cells (Homo sapiens, HSB2, 48 h).
The corresponding values for `Nc1nc(N2CCN(C(=O)CCc3ccc(F)cc3)CC2)c2nc(-c3ccc(F)cc3)sc2n1` [Example 236, 1-(4-(5-amino-2-(4-fluorophenyl)thiazolo[5,4-d]pyrimidin-7-yl)piperazin-1-yl)-3-(4-fluorophenyl)propan-1-one] are 8.2 µM and 5.57 µM.
The corresponding values for `COc1ccc(OCC(=O)N2CCN(c3nc(N)nc4sc(-c5ccc(Cl)cc5)nc34)CC2)cc1` [Example 270, 1-(4-(5-amino-2-(4-chlorophenyl)thiazolo[5,4-d]pyrimidin-7-yl)piperazin-1-yl)-2-(4-methoxyphenoxy)ethanone] are 0.45 µM and 0.18 µM.
The corresponding values for `Nc1nc(N2CCN(C(=O)COc3ccc(OC(F)(F)F)cc3)CC2)c2nc(-c3cccnc3)sc2n1` [Example 273, 1-(4-(5-amino-2-(pyridin-3-yl)thiazolo[5,4-d]pyrimidin-7-yl)piperazin-1-yl)-2-(4-trifluoromethoxyphenoxy)ethanone] are 4.84 µM and 0.81 µM.
Turning to `Nc1nc(N2CCN(C(=O)Nc3ccc(Cl)cc3)CC2)c2nc(-c3cccnc3)sc2n1` [Example 277, 4-(5-amino-2-(pyridin-3-yl)thiazolo[5,4-d]pyrimidin-7-yl)-N-(4-chlorophenyl)piperazine-1-carboxamide], the IC50 was 0.83 µM with HL-60 cells (Homo sapiens, 48 h) and 0.74 µM with HSB-2 cells (Homo sapiens, HSB2, 48 h).
The corresponding values for `COc1ccc(CNC(=O)N2CCN(c3nc(N)nc4sc(-c5cccnc5)nc34)CC2)cc1` [Example 278, 4-(5-amino-2-(pyridin-3-yl)thiazolo[5,4-d]pyrimidin-7-yl)-N-(4-methoxybenzyl)piperazine-1-carboxamide] are 0.68 µM and 0.75 µM.
The corresponding values for `N#Cc1ccc(NC(=O)N2CCN(c3nc(N)nc4sc(-c5cccnc5)nc34)CC2)cc1` [Example 279, 4-(5-amino-2-(pyridin-3-yl)thiazolo[5,4-d]pyrimidin-7-yl)-N-(4-cyanophenyl)piperazine-1-carboxamide] are 0.88 µM and 0.68 µM.
The corresponding values for `Nc1nc(N2CCN(C(=O)COc3ccc(Cl)cc3)CC2)c2nc(-c3ccccn3)sc2n1` [Example 282, 1-(4-(5-amino-2-(pyridin-2-yl)thiazolo[5,4-d]pyrimidin-7-yl)piperazin-1-yl)-2-(4-chlorophenoxy)ethanone] are 0.92 µM and 0.56 µM.
For `Nc1nc(N2CCN(C(=O)COc3ccc(Cl)cc3)CC2)c2cc(-c3ccc(F)cc3)sc2n1` [Example 326, 1-(4-(2-amino-6-(4-fluorophenyl)thieno[2,3-d]pyrimidin-4-yl)piperazin-1-yl)-2-(4-chlorophenoxy)ethanone], the half-maximal inhibitory concentration (IC50) in the test with HL-60 cells (Homo sapiens, 48 h) was over 10 µM; with HSB-2 cells (Homo sapiens, HSB2, 48 h) it was 8.97 µM.
The corresponding values for `Nc1nc(N2CCN(C(=O)COc3ccc(Cl)cc3)CC2)c2cc(-c3ccccc3)sc2n1` [Example 329, 1-(4-(2-amino-6-phenylthieno[2,3-d]pyrimidin-4-yl)piperazin-1-yl)-2-(4-chlorophenoxy)ethanone] are over 10 µM and 13.7 µM.
For the compound `Cc1cccc(NC(=O)N2CCN(c3nc(N)nc4sc(-c5ccccc5)cc34)CC2)c1` [Example 330, 4-(2-amino-6-phenylthieno[2,3-d]pyrimidin-4-yl)-N-m-tolylpiperazine-1-carboxamide], the IC50 in the test with HL-60 cells (Homo sapiens, 48 h) was over 10 µM; in the test on HSB-2 cells (Homo sapiens, HSB2, 48 h) it was 7.61 µM.
The corresponding values for `Nc1nc(N2CCN(C(=O)Nc3ccc(Cl)cc3)CC2)c2cc(-c3ccccc3)sc2n1` [Example 331, 4-(2-amino-6-phenylthieno[2,3-d]pyrimidin-4-yl)-N-(4-chlorophenyl)piperazine-1-carboxamide] are over 10 µM and over 10 µM.
Turning to `Nc1nc(N2CCN(C(=O)COc3ccccc3)CC2)c2cc(-c3ccccc3)sc2n1` [Example 332, 1-(4-(2-amino-6-phenylthieno[2,3d]pyrimidin-4-yl)piperazin-1-yl)-2-phenoxyethanone], the IC50 in the test on HL-60 cells was over 10 µM; in the test with HSB-2 cells it was 5.5 µM.
With `Nc1nc(N2CC[C@@H](NC(=O)c3ccc(Cl)cc3)C2)c2cc(-c3ccc(F)cc3)sc2n1` [Example 341, (R)—N-(1-(2-amino-6-(4-fluorophenyl)thieno[2,3-d]pyrimidin-4-yl)pyrrolidin-3-yl)-4-chlorobenzamide], the IC50 with HL-60 cells (Homo sapiens, 48 h) was over 10 µM; in the test with HSB-2 cells (Homo sapiens, HSB2, 48 h) it was over 10 µM.
On to `Nc1nc(N2CCN(C(=O)CCc3ccccc3)CC2)c2cc(-c3ccc(F)cc3)sc2n1` [Example 343, 1-(4-(2-amino-6-(4-fluorophenyl)thieno[2,3-d]pyrimidin-4-yl)piperazin-1-yl)-3-phenylpropan-1-one], for which the IC50 is over 10 µM in the test on HL-60 cells (Homo sapiens, 48 h) and over 10 µM in the test with HSB-2 cells (Homo sapiens, HSB2, 48 h).
Turning to `Nc1nc(N2CCN(C(=O)COc3ccc(Cl)cc3)CC2)c2ccsc2n1` [Example 351, 1-(4-(2-aminothieno[2,3-d]pyrimidin-4-yl)piperazin-1-yl)-2-(4-chlorophenoxy)ethanone], the half-inhibitory concentration (IC50) with HL-60 cells (Homo sapiens, 48 h) stood at 5.08 µM; in the test on HSB-2 cells (Homo sapiens, HSB2, 48 h), 1.7 µM.
The corresponding values for `COc1ccc(OCC(=O)N2CCN(c3nc(N)nc4sc(-c5ccccc5)cc34)CC2)cc1` [Example 369, 1-(4-(2-amino-6-phenylthieno[2,3-d]pyrimidin-4-yl)piperazin-1-yl)-2-(4-methoxyphenoxy)ethanone] are 6.05 µM and 5.87 µM.
